7 compounds from ChEMBL document CHEMBL1201862, “PubChem BioAssay data set” (2004) can be followed below.

For orientation: CC50 means the concentration at which the toxic effect on the cells reaches its halfway point. What is called IC50 is the point on the concentration scale where inhibition reaches its midpoint. In general, AC50 refers to the concentration giving half of the maximal activity seen. Broadly, the EC50 is the midpoint of the concentration-response curve.

Molecules are shown by their SMILES. The source made the active and inactive calls. A value given as a limit tells only on which side of the number the result lay.

The test system of one assay is Vero. Kind of assay: viability of Vero cells under compound – cytotoxicity control for flavivirus capping enzyme inhibitors (AID 588742). As to conditions: Chlorocebus sabaeus. It is filed as functional.
The next assay concerns the target Genome polyprotein (dengue virus type 2, UniProt P29990). Kind of assay: flavivirus cap methylation enzyme inhibition – biochemical, confirmation dose response, primary screen (AID 588689). It is filed as functional.
Assay [1] concerns the target Cyclin-dependent kinase 2 (Homo sapiens, UniProt P24941). In words: inhibition of human CDK2/cyclin A – biochemical, cherry-picked samples, selectivity assay for Dyrk1A inhibitor project, dose response (AID 602127).
For assay [2], the target named is Dual specificity protein kinase CLK1 (Homo sapiens, UniProt P49759). Kind of assay: inhibition of human CLK1 activity – biochemical, cherry-picked samples, selectivity assay for Dyrk1A inhibitor project, dose response (AID 588811).
The nature of assay [3]: reduction of Shn3 3'UTR-driven luciferase in osteoblasts – cell-based, Clone20 osteoblasts, firefly luciferase, cherry-picked, dose response (AID 624132).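 Further: firefly luciferase luminescence from reporter carrying the Shn3 3'UTR in osteoblasts.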 It is filed as functional.
Assay [4] addresses T1, Microphthalmia-associated transcription factor (Homo sapiens, UniProt O75030).
T1 sequence (O75030 whole entry): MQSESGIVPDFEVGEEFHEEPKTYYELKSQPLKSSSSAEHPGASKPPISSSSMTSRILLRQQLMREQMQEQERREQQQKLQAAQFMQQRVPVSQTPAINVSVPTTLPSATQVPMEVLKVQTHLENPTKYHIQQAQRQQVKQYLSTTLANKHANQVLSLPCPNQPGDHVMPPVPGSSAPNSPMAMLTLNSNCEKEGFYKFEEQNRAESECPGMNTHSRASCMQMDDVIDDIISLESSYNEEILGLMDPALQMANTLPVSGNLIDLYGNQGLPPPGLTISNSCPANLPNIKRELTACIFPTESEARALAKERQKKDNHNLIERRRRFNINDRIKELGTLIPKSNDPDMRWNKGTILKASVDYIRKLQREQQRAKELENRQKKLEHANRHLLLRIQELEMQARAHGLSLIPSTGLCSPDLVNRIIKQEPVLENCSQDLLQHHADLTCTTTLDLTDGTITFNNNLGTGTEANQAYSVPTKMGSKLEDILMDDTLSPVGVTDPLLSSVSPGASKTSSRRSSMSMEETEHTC
Kind of assay: reducers of TRPM1 reporter luminescence, concentration series – cell-based, SK-MEL-5, cherry-picked, set 3, MITF inhibitor project, dose response (AID 493073).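 Further: SK-MEL-5 melanoma cells with luciferase driven by the MITF target TRPM1 promoter.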 It is filed as functional.

In the next assay the test system is Saccharomyces cerevisiae. In words: S. cerevisiae Caspase-1/ASC signal blockers IC50, NALP1 inhibitor project selectivity test (AID 488863). It is filed as functional, organism-based.
In assay [5] the test system is A-375. Kind of assay: MITF: Counter assay: A375 proliferation Measured in Cell-Based System Using Plate Reader - 2084-03_Inhibitor_Dose_DryPowder_Activity. [Related pubchem assays (depositor defined):AID488944]. It is filed as functional. The conditions noted are these: Homo sapiens.
Assay [6] is described as follows: viability of PTEN-deleted HCT116 cells – cell-based, HCT116 PTEN knockout, dose response (AID 1047).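 Further: HCT116 colon tumor cells with PTEN knocked out; cells exposed to compound for 60 hours before readout; potency for loss of cell viability measured by luminescence.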 It is filed as functional.
In assay [7] the target is NACHT, LRR and PYD domains-containing protein 1 (Homo sapiens, UniProt Q9C000). Kind of assay: NALP1 inhibitors in yeast, dose response, luminescent (AID 488860). It is filed as functional.
Assay [8] can be described thus: HepG2 cell cytotoxicity, dose response, cytotoxicity control for non-replicating M. tuberculosis project (AID 489018). It is filed as functional. As to conditions: Mycobacterium tuberculosis.
The nature of assay [9]: THP-1 cell cytotoxicity, dose response, cytotoxicity control for non-replicating M. tuberculosis project (AID 489025). It is filed as functional.
A short description of assay [10]: Luminescence Cell-Based Dose Retest to Confirm Inhibitors of Cancer Stem Cells. [Related pubchem assays (depositor defined):AID2717, AID2721]. It is filed as functional, Homo sapiens. As to conditions: Homo sapiens.
The nature of assay [11]: loss of viability in HepG2 cells – cell-based, CellTiter-Glo, cherry-picked, cytotoxicity control for Shn3 inhibitor project, dose response (AID 624134). It is filed as functional. Background: In ATP-based viability assays light output follows the ATP content of the culture.
The next assay in a line: cells. It is filed as functional.
Assay [12] can be described thus: viability of HCT116 lacking mutant beta-catenin – cell-based, human colon tumor, dose response (AID 1045).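 Further: HCT116 colon tumor cells with beta catenin knocked out; cells exposed to compound for 60 hours.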 It is filed as functional.
A short description of assay [13]: Vero E6 cell cytotoxicity, dose response, cytotoxicity control for non-replicating M. tuberculosis project, secondary assay (AID 492998). The conditions noted are these: Vero C1008. It is filed as functional, VeroE6.
Assay [14] concerns A-375. In words: proliferation inhibition in MITF-low A375 cells – cell-based, cherry-pick samples, set 2, counter-screen for MITF modulator project, dose response (AID 540335). It is filed as functional. As to conditions: Homo sapiens. On the technique in general: The purpose of a counterscreen is to sort out artefacts and off-target activity.
The nature of assay [15]: decrease of insulin promoter-GFP reporter – imaging, high-content screening, mouse beta cells (AID 1628). It is filed as functional. As to conditions: MIN6.
A short description of assay [16]: non-specific 3'UTR reporter inhibition in Clone20-Shn3RL – cell-based, Renilla luciferase, cherry-picked, counter-screen for Shn3 inhibitor project, dose response (AID 624133). It is filed as functional.
Assay [17] is described as follows: MIN6 cell viability loss – mouse insulinoma, cytotoxicity control, dose response (AID 2122).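 Further: confirmatory high-throughput counterscreen run to flag cytotoxic compounds.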 It is filed as functional.
Assay [18] has as its system HEK293. Kind of assay: HEK293T cell viability loss, resazurin readout – resazurin fluorescence, cytotoxicity control for NF-kB activator project, SAR follow-up (AID 493251). It is filed as functional, cell-based. The conditions noted are these: Homo sapiens. A general note: Alamar Blue is a resazurin reagent that responds to reducing activity.
Assay [19] has as its system HEK293. In words: SAR Analysis of small molecule inhibitors of B-cell specific antigen receptor-induced NF-kB activation in a HEK-293T cell line using a luminescence assay - Set 2. [Related pubchem assays (depositor defined):AID435022, AID435025, AID489021]. It is filed as functional, cell-based. As to conditions: Homo sapiens.
The test system of a further assay is Jurkat. In words: SAR Analysis of small molecule inhibitors of […] specific antigen receptor-induced NF-kB activation in a Jurkat cell line using a luminescence assay - Set 3. [Related pubchem assays (depositor defined):AID435022, AID435025, AID465]. The conditions noted are these: Homo sapiens. It is filed as functional, cell-based.
In assay [20] the target is Type-1 angiotensin II receptor (Homo sapiens, UniProt P30556). Kind of assay: antagonism of angiotensin II type 1 receptor – cell-based, uHTS hits, selectivity assay for APJ receptor antagonist project, dose response (AID 463214).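 Further: antagonist potency against angiotensin II stimulated AT1 response.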 It is filed as functional.
For a further assay, the target named is Beta-galactosidase (Escherichia coli, UniProt Q8VNN2). In words: PubChem AID 485352. It is filed as functional.
Assay [21] deals with Candida albicans. Kind of assay: resistant Candida growth with fluconazole co-treatment – CaCi-8 strain, Alamar Blue, dry powder, set 2, dose response (AID 488909). It is filed as functional, organism-based.
For assay [22], the system named is Candida albicans. Kind of assay: fluconazole-resistant Candida strain growth inhibitors – CaCi-8 strain, dry powder, set 4, dose response (AID 488950). It is filed as functional, organism-based.
The test system of assay [23] is Candida albicans. Kind of assay: C. albicans growth inhibition with fluconazole – CaCi-2 strain, Alamar Blue, dry powder, set 4, dose response (AID 488943). It is filed as functional, organism-based.
For another assay, the target named is Phospholipase D1 (Homo sapiens, UniProt Q13393). In words: cellular phospholipase D1 inhibition IC50 – cell-based, dose response (AID 602151).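 Further: cellular PLD1 assay in Calu-1 cells stimulated with PMA.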 It is filed as functional.
Another assay deals with Phospholipase D2 (Homo sapiens, UniProt O14939). In words: cellular phospholipase D2 inhibition IC50 – cell-based, dose response (AID 602147).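 Further: cellular assay in HEK293 cells overexpressing GFP-tagged PLD2.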 It is filed as functional.
Phospholipase D2, sequence (O14939 whole entry): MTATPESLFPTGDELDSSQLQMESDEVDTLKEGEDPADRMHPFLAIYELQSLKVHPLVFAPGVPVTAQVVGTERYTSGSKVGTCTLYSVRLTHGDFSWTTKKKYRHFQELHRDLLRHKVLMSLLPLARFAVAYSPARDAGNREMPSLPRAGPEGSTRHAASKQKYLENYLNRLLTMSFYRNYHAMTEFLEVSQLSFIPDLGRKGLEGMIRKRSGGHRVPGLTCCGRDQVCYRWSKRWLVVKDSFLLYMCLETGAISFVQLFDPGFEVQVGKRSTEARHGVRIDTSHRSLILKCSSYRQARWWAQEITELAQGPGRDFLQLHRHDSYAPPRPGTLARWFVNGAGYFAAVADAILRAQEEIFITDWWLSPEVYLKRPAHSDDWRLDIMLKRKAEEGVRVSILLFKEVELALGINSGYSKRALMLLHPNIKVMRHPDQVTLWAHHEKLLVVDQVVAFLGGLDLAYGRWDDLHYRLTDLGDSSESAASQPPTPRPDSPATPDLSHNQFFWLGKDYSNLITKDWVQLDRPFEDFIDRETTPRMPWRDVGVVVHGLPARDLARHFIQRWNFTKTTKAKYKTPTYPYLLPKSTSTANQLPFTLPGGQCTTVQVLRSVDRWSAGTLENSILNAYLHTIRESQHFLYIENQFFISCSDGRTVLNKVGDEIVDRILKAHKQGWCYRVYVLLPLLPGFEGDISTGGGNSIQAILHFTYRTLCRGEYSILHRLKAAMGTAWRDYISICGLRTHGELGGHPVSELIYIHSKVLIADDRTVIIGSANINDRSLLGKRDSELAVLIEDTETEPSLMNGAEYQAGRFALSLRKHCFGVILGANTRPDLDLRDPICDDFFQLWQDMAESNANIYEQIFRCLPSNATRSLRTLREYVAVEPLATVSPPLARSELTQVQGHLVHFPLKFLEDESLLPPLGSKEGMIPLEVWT

Phospholipase D1, sequence (Q13393 whole entry): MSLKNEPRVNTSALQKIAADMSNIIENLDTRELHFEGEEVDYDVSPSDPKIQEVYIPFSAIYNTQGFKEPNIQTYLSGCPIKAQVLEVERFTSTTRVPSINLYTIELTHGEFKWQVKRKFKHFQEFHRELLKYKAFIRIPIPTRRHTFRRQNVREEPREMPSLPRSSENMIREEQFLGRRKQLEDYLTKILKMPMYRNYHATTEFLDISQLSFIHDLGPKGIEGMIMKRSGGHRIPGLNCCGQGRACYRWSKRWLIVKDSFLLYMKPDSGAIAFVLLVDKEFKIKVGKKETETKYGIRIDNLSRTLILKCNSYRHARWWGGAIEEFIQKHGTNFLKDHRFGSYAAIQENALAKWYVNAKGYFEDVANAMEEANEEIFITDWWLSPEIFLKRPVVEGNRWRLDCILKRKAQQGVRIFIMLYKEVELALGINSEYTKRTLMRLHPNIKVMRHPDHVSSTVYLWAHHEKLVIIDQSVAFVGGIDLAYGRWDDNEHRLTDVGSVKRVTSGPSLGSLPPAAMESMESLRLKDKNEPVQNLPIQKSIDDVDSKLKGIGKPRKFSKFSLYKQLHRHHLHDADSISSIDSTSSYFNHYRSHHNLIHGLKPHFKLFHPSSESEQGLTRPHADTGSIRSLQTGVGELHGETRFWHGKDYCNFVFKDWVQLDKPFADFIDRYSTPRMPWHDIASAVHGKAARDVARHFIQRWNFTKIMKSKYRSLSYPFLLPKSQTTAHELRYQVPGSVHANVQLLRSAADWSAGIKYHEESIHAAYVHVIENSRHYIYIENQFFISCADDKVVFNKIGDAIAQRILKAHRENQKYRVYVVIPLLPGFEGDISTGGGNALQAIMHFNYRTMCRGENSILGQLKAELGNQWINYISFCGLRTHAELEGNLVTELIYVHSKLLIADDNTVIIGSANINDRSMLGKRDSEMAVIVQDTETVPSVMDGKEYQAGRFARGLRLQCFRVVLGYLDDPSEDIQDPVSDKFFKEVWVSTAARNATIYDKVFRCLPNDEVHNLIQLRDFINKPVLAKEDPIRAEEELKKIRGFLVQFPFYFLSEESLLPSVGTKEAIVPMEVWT
Type-1 angiotensin II receptor, sequence (P30556 whole entry): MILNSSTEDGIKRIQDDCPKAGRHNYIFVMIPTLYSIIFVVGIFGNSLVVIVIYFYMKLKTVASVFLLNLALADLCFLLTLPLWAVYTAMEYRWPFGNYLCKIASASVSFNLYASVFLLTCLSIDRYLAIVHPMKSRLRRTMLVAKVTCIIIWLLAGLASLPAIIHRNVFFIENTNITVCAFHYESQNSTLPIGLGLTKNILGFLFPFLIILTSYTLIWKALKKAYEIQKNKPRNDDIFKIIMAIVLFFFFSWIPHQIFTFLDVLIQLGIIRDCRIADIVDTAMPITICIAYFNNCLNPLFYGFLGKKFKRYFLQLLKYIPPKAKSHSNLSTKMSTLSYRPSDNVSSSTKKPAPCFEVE
Beta-galactosidase, sequence (Q8VNN2 whole entry): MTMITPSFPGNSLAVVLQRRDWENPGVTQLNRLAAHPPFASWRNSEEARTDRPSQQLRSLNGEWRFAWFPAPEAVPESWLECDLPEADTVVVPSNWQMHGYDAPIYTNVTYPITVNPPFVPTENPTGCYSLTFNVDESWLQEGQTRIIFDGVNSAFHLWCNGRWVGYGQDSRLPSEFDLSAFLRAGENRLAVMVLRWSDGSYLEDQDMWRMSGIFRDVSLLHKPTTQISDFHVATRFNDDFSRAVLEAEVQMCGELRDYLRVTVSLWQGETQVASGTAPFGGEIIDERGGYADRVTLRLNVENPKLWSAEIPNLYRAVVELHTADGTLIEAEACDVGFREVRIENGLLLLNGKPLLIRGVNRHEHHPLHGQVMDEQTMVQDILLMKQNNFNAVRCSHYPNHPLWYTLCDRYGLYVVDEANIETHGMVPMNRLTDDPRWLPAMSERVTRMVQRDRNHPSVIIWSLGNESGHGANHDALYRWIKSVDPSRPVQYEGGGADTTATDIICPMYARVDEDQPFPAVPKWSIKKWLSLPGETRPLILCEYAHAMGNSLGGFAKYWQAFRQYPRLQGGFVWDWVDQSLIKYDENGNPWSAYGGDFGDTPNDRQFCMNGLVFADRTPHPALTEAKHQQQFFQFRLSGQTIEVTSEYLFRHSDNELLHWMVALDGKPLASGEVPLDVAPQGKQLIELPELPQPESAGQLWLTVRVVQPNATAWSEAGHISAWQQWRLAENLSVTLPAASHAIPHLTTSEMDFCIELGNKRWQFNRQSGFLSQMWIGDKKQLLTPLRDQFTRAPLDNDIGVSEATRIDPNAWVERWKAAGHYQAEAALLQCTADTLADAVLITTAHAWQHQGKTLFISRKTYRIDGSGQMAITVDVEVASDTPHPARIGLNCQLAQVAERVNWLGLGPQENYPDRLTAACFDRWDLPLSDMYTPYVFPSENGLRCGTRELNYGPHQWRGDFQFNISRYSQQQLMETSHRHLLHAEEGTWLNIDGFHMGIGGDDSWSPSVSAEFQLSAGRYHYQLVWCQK
NACHT, LRR and PYD domains-containing protein 1, sequence (Q9C000 1-1212 limits assumed): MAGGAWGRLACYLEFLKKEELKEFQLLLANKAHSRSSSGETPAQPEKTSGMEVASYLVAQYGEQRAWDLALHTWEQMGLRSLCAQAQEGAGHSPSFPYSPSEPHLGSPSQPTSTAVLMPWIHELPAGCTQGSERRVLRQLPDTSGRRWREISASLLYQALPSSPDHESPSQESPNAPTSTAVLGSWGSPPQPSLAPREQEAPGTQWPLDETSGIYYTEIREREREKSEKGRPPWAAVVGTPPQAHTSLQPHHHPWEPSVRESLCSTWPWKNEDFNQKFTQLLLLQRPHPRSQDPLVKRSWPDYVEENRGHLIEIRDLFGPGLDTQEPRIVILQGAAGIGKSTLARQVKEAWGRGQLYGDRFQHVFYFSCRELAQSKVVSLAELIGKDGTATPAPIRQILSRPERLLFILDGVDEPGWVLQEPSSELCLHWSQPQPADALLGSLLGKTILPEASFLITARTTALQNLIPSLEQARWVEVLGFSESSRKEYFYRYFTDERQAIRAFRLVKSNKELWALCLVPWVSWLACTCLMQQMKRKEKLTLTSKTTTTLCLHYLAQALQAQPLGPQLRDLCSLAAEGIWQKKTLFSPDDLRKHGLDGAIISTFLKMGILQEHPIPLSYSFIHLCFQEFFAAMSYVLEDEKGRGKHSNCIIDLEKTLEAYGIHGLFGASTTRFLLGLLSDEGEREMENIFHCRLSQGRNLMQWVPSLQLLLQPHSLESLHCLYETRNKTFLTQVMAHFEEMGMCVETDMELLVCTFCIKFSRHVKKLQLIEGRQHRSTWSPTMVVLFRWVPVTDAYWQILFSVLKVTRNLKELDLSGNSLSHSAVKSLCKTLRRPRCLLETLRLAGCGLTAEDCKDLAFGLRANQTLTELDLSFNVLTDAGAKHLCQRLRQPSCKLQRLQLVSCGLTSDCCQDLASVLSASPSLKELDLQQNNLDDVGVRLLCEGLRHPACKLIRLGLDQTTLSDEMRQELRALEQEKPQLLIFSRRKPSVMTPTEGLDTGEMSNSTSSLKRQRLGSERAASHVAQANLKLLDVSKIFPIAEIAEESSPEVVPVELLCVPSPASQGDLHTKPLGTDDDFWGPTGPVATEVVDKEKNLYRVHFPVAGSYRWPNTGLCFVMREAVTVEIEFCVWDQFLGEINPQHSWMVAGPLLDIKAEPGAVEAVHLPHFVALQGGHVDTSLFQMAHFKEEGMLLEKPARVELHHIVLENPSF
NACHT, LRR and PYD domains-containing protein 1, sequence (Q9C000 1213-1473 limits assumed): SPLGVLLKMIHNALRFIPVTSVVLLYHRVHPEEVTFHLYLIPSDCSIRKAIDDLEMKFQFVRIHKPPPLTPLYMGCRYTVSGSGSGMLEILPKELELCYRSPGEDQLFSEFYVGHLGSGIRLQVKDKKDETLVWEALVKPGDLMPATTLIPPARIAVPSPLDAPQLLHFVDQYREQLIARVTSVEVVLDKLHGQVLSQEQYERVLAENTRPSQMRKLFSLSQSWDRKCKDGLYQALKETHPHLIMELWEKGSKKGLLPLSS

On to `O=C1NC(=S)NC(=O)C1=Cc1c(Cl)cccc1Cl`, for which the CC50 in the assay with Vero was > 40 µM (active). Further, the IC50 on Genome polyprotein was 26.9 µM (active).
Turning to `c1cncc(CNc2nccc(-c3ccc4cn[nH]c4c3)n2)c1`, the figures for the AC50 in assay [1] and in [2] were 13.8 µM (active) and 0.0754 µM (active), respectively.
Take `CCCOc1ccc(C(=O)C(CN2CCCC2)c2ccccc2)cc1` (stereo unspecified): the AC50 in assay [3] was 4.84 µM (active); in assay [4], 8.62 µM (active); in the assay on A-375 [5], > 35 µM (active); in assay [10], 1.76 µM (active); in assay [11] it was 22.6 µM (active); in the assay on A-375 [14], > 35 µM (active). In [16], the AC50 is 13.2 µM (active). Also, the IC50 was 5.8 µM (active) in the assay on Saccharomyces cerevisiae; 10.2 µM (active) in [7]; 12.7 µM (active) in “cells”; 3.73 µM (active) in assay [15]; 3.13 µM (active) in assay [17]. The concentration for a half-maximal effect (EC50) in [6] was 2.19 µM (active); in assay [12] it was 1.96 µM (active). For the same compound, the values for the CC50 in assay [8], in [9] and in assay [13] were 13.3 µM (active), 6.32 µM (active) and 9.02 µM (active), respectively.
On to `CNC(=O)CCc1nc(-c2ccc(F)cc2)no1`, for which the IC50 in the assay with HEK293 [18], in the assay on HEK293 [19] and in the assay on Jurkat was > 80 µM (inactive) in each case.
For the compound `Cc1ccc(C)c(NCC(=O)c2ccc(Cl)cc2)c1`, the IC50 in [20] is 14.4 µM (active). On Beta-galactosidase, the EC50 was > 40 µM (inactive).
With `O=C(c1ccc(Cl)cc1)N1CCN(c2ncnc3ccccc23)CC1`, the AC50 was 4.12 µM (active) with Candida albicans [21], 2.27 µM (active) in the assay with Candida albicans [22] and 1.07 µM (active) in the assay with Candida albicans [23].
As for `O=C(NCCN1CCC(n2c(=O)[nH]c3ccccc32)CC1)c1cscn1`, the IC50 at Phospholipase D1 is 0.033 µM (active); on Phospholipase D2, 0.25 µM (active).
